Where two headings read alike, the source gives them in different places.
What was measured:
[1] = molecular target: T1, xanthine oxidase (Bos taurus, UniProt P80457); experiment: in vitro xanthine oxidase assay (rate of uric acid formation from xanthine); assay type: biochemical
T1 construct: purchased Sigma Chemical Company, St. Louis, Missouri
Procedure: Xanthine oxidase activity was measured at room temperature by the rate of uric acid formation from xanthine substrate. In a total volume of 1 ml., the incubation mixture contained 50 micromoles of potassium phosphate buffer at pH 7.4, 0.05 micromoles of xanthine and 0.01 units of enzyme preparation (chromatographically purified milk xanthine oxidase, grade III, obtained from Sigma Chemical Company, St. Louis, Missouri). The absorbence change at 292 nm was recored by a Gilford recording spectrophotometer and the uric acid formed was calculated using an extinction coefficient of 12 mM^-1 cm^-1 at 292 nm.

[2] = oral LD50 in mice; settings: mouse, in vivo; for selectivity ratio: LD50 oral mice / ED50 oral rats; for LD50: oral, mice, with standard error, read-out: LD50 (dose which kills one-half of the animals)
Excerpt: The compounds represented by the above formula are also relatively non-toxic. In column 3 of Table IV are listed the oral LD50 for mice in mg. per kg. (with standard error) for each of the compounds of column 1 (dose which kills one-half of the animals). Finally, column 4 in Table IV gives the ratio of LD50 to ED50. It will be seen that the ratio of the LD50 to the ED50 is quite high, giving a substantial margin of safety for using the compounds of formulas Ia, Ib, and Ic in treating gout in mammals, particularly humans.

[3] = tested on: plasma level of uric acid; experiment: in vivo lowering of plasma uric acid, oral, rats; settings: Rattus norvegicus, read-out: ED50 (dose which reduces plasma level of uric acid by one-half)
Procedure: (§1) Compounds corresponding to formulas Ia, Ib and Ic above are active in vivo in lowering plasma uric acid levels. […] The first method, the spectrofluorometric method, was modified from the precedure of Sumi et al., Clinica. Chimica. Acta., 73, 233 (1976). Rats were sacrificed by decapitation and their blood collected into vacutainer tubes containing heparin via heparinized glass funnels. The blood was centrifuged for 8 minutes at 4000 rpm after which time the plasma was separated and diluted 1:1 with water. Plasma protein was precipitated by addition of acetic acid to a final concentration of 0.007 molar and boiling the resulting mixture for 5 minutes in Sorval tubes. Clear deprotein plasma was obtained after centrifugation of the resulting plasma for 30 minutes at 25,000 rpm. Uric acid was assayed as follows: 0.2 ml. aliquots of the clear deproteinized plasma were mixed with 120 λ of uricase (0.045 mu/ml.) and incubated for 30 minutes at 27° C. 1.0 ml. of a p-hydroxyphenylacetic acid buffer was added. Samples obtained from feeding rats or dogs serial doses of the compound under test were incubated with the above buffer solution for 30 minutes at 27° C. Fluoroescence of the solution was measured in quartz tubes using an Aminco Bowman-Spectrofluorimeter having excitation of 321 nm and emission at 412 nm. Five uric acid standards from 6-30 micromolar were assayed for each test and each standard yielded a linear curve.
The second method is called the HPLC-EC Detection method. In this procedure, blood plasma was collected from rats as described above and from dogs in heparinized syringes from the cefalic vein in the forearm. The blood plasma was centrifuged with Sure-Sep to separate plasma. Deproteinized plasma was prepared in each instance by first diluting one volume of plasma with one volume of an internal standard solution, 4 mcg./ml., and then addition of two volumes of 5% trichloroacetic acid. Standards were added to control plasma in the range of 0-8 mcg./ml. of uric acid. Samples obtained by feeding graded doses of the drug under test to dogs or rats were mixed for 30 seconds and then centrifuged in an Eppendorf microcentrifuge. Supernates were diluted 1:10 in column buffer and assayed for uric acid. Internal standards used were 3-methyluric acid for the rat samples and 3,9-dimethyluric acid for dog samples. Assays were performed as follows using a Bioanlaytic Systems Inc. LC-44 analyser and an electrochemical detector system based on an Altex model 110 pump coupled with a CP-O carbon paste electrodetector. […] Uric acid levels were then calculated from peak areas by computer analysis. […]

[4] = tested on: xanthine oxidase; experiment: oral administration in rats, in vivo inhibition of xanthine oxidase (Table V); parameters: species or system rat
Procedure: as §1, with “Samples obtained from feeding rats or dogs serial doses of the compound under test were incubated with the above buffer solution for 30 minutes at 27° C.” left out, “Five uric acid standards from 6-30 micromolar were assayed for each test and each standard yielded a linear curve.” left out
The second method is called the HPLC-EC Detection method. […] Uric acid levels were then calculated from peak areas by computer analysis. […]

[5] = milk xanthine oxidase, 0.05 micromoles xanthine in 1 ml, pH 7.4, room temperature, read-out: I50 (concentration of drug which inhibits 50% of the oxidation of xanthine to uric acid) (converted)

T1 sequence (P80457 whole entry): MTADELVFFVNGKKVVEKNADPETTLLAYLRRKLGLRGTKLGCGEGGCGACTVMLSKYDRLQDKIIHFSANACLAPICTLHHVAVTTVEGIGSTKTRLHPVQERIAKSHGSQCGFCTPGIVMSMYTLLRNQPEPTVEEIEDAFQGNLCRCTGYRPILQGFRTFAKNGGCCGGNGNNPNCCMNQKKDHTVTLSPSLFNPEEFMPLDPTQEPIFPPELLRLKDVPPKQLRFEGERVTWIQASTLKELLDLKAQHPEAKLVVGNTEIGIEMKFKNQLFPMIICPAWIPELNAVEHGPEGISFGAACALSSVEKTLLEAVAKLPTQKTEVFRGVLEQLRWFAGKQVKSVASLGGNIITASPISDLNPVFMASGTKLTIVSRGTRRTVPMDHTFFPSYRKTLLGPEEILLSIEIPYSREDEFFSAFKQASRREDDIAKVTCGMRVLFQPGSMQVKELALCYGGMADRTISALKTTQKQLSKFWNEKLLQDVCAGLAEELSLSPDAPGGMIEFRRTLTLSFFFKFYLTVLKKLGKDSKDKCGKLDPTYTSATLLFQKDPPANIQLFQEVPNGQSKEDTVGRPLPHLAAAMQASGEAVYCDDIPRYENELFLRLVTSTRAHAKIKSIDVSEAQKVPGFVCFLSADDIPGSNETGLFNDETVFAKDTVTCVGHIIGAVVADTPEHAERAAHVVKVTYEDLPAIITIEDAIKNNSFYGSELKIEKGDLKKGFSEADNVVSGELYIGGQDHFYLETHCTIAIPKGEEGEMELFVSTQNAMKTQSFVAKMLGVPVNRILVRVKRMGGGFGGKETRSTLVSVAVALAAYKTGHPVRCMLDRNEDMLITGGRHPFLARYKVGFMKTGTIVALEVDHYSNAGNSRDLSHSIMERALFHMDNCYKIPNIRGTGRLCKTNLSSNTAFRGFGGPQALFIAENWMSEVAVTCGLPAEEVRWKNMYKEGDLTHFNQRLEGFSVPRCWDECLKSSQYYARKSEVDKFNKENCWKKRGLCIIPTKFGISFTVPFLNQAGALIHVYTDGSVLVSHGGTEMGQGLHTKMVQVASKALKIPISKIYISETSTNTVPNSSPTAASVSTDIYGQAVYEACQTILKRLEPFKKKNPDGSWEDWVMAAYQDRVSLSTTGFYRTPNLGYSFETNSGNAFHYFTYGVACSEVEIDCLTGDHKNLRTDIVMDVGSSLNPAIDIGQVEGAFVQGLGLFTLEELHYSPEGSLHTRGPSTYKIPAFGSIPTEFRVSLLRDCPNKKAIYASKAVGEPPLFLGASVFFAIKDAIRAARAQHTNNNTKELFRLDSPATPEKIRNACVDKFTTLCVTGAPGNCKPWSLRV

Structure (SMILES)	IC50 [1, 5]	further results
Cn1nc(-c2cccc(Br)c2)cc1C(=O)O [R=3-Br, R^1=H, 1-Methyl-3-(3-bromophenyl)pyrazole-5-carboxylic acid]	71.1 nM	–
Cn1nc(-c2cccc(C(F)(F)F)c2)cc1C(=O)O [R=3-CF3, R^1=H, 1-methyl-3-(3-trifluoromethylphenyl)pyrazole-5-carboxylic acid]	25.9 nM	selectivity ratio [2]: 19.5; LD50 [2]: 585 ± 45 mg/kg; ED50 [3]: 30 mg/kg
O=C(O)c1cc(-c2cccc(C(F)(F)F)c2)n[nH]1 [R=3-CF3, X=H, 3(5)-(3-trifluoromethylphenyl)pyrazole-5(3)-carboxylic acid]	390 nM	–
O=C(O)c1[nH]nc(-c2cccc(C(F)(F)F)c2)c1O [R=3-CF3, X=OH, 3(5)-(3-Trifluoromethylphenyl)-4-hydroxypyrazole-5(3)-carboxylic acid]	44.8 nM	–
Cc1cccc(-c2cc(C(=O)O)n(C)n2)c1 [R=3-CH3, R^1=H, 1-Methyl-3-(m-tolyl)pyrazole-5-carboxylic acid]	1390 nM	–
Cn1nc(-c2ccc(Cl)c(Cl)c2)cc1C(=O)O [R=3-Cl, R^1=4-Cl, 1-Methyl-3-(3,4-dichlorophenyl)pyrazole-5-carboxylic acid]	177 nM	–
Cn1nc(-c2cccc(Cl)c2)cc1C(=O)O [R=3-Cl, R^1=H, 1-Methyl-3-(3-chlorophenyl)pyrazole-5-carboxylic acid]	304 nM	–
COc1ccc(-c2cc(C(=O)O)n(C)n2)cc1OC [R=3-OCH3, R^1=4-OCH3, 1-Methyl-3-(3,4-dimethyoxyphenyl)pyrazole-5-carboxylic acid]	244 nM	–
Cn1nc(-c2ccc(Br)cc2)cc1C(=O)O [R=4-Br, R^1=H, 1-methyl-3-(4-bromophenyl)pyrazole-5-carboxylic acid]	416 nM	–
Cn1nc(-c2ccc(C(F)(F)F)cc2)cc1C(=O)O [R=4-CF3, R^1=H, 1-methyl-3-(4-trifluoromethylphenyl)pyrazole-5-carboxylic acid]	426 nM	–
Cn1nc(-c2ccc(Cl)cc2)cc1C(=O)O [R=4-Cl, R^1=H, 1-Methyl-3-(4-chlorophenyl)pyrazole-5-carboxylic acid]	1690 nM	–
O=C(O)c1[nH]nc(-c2ccc(F)cc2)c1O [R=4-F, X=OH]	1580 nM	–
COc1ccc(-c2cc(C(=O)O)n(C)n2)cc1 [R=4-OCH3, R^1=H, 1-Methyl-3-(4-methoxyphenyl)pyrazole-5-carboxylic acid]	310 nM	–
COc1ccc(-c2n[nH]c(C(=O)O)c2O)cc1 [R=4-OMe, X=OH]	726 nM	–
Cn1nc(-c2cccc(Br)c2)c(Cl)c1C(=O)O [R=Br, X=Cl, 1-Methyl-3-(3-bromophenyl)-4-chloropyrazole-5-carboxylic acid]	66.5 nM	–
Cn1nc(-c2cccc(C(F)(F)F)c2)c(Br)c1C(=O)O [R=CF3, X=Br, 1-methyl-3-(3-trifluoromethylphenyl)-4-bromopyrazole-5-carboxylic acid]	57.3 nM	selectivity ratio [2]: 27 to 45; LD50 [2]: 300 to 500 mg/kg; ED50 [3]: 11 mg/kg
Cn1nc(-c2cccc(C(F)(F)F)c2)c(Cl)c1C(=O)O [R=CF3, X=Cl, 1-Methyl-3-(3-trifluoromethylphenyl)-4-chloropyrazole-5-carboxylic acid]	–	selectivity ratio [2]: 38; LD50 [2]: 322 ± 38 mg/kg; ED50 [3]: 8.5 mg/kg; IC50 [1]: 46 nM
Cn1nc(-c2cccc(C(F)(F)F)c2)c(N)c1C(=O)O [R=CF3, X=NH2, 1-Methyl-3-(3-trifluoromethylphenyl)-4-aminopyrazole-5-carboxylic acid]	30.2 nM	ED50 [3]: 23 mg/kg
Cn1nc(-c2cccc(C(F)(F)F)c2)c(O)c1C(=O)O [R=CF3, X=OH, 1-methyl-3-(3-trifluoromethylphenyl)-4-hydroxypyrazole-5-carboxylic acid]	28 nM	–
Cn1nc(-c2cccc(C(F)(F)F)c2)cc1C(N)=O [R=NH2]	–	Oral Percent Inhibition ([4]; dosage 90 mg·kg): 23.5%
COC(=O)c1cc(-c2cccc(C(F)(F)F)c2)nn1C [R=OCH3, methyl 1-methyl-3-(3-trifluoromethylphenyl)pyrazole-5-carboxylate]	–	Oral Percent Inhibition ([4]; dosage 24 mg·kg): 50%
